Experimental data taken from paper PMC10697071, “Bio-guided isolation of alpha-glucosidase inhibitory compounds from Vietnamese liverwort Marchantia polymorpha: in vitro and in silico studies” (RSC Advances, 2023).
Entries after “also recorded” stand apart in the source; their conditions may differ.

Tests used:
yeast alpha-glucosidase = assay: Alpha-glucosidase inhibition assay; format: biochemical; details: for IC50: yeast alpha-glucosidase
Description: Evaluation of the inhibitory activity of 1–12 against yeast alpha-glucosidase followed a previous procedure.[37]

alpha-glucosidase = assay: Kinetic study of alpha-glucosidase inhibition (Lineweaver–Burk plots); format: biochemical
Procedure: To examine the inhibition mechanism, activity at concentrations of 0, 3.61, 7.22, 14.44, and 28.88 μM of 2 was recorded. […] Increasing inhibitor concentrations cause a decrease in the Vmax of α-glucosidase.
The mechanisms of inhibition of alpha-glucosidase by 2 were determined by Lineweaver–Burk plots (Microsoft Excel 2010, Washington, USA), using methods similar to those reported in the literature.[40] Enzyme inhibition due to various concentrations of 2 was evaluated by monitoring the effects of different concentrations of the substrate. For Lineweaver–Burk double reciprocal plots 1/enzyme velocity (1/V) vs. 1/substrate concentration (1/[S]), the inhibition type was determined using various concentrations of pNPG (1 mM, 2 mM, and 4 mM) as a substrate in the presence of different concentrations of the test compound (0, 3.61, 7.22, 14.44, and 28.88 μM for 2). The experiments were carried out in three replicates. The mixtures were incubated at 37 °C, and the optical density was measured at 405 nm every 1 min for 30 min with the ELx800 Absorbance Microplate Reader (BioTek Instruments, Inc., Vermont, USA). The optimal concentrations of the tested compound were chosen based on the IC50 value. The inhibition constants were obtained graphically from secondary plots (Microsoft Excel 2010, Washington, USA).

IC50 (yeast alpha-glucosidase) | Molecule | other results
57.3 ± 1.9 µM | Oc1cc2cc(c1O)Oc1ccc(cc1)CCc1cccc(O)c1Oc1cccc(c1)CC2 [Compound 1, Marchantin A] | 
151 ± 2.9 µM | Oc1cccc2c1Oc1cccc(c1)CCc1cc(c(O)c(O)c1Br)Oc1ccc(cc1)CC2 [Compound 1a, 5′-Bromomarchantin A] | Alpha-glucosidase inhibition (in words) (yeast alpha-glucosidase; qualitative statement): weaker activity than the parent compound 1
28.9 ± 0.2 µM | Oc1ccc2cc1Oc1ccc(cc1)CCc1ccc(c(O)c1)-c1c(O)cccc1CC2 [Compound 2, Isoriccardin C] | Type of inhibition (alpha-glucosidase; Lineweaver–Burk plots, same Km, decreasing Vmax): non-competitive inhibitor; also recorded: non-competitive type; Ki (alpha-glucosidase; pNPG substrate 1, 2, 4 mM, 37 °C, secondary plot of slope versus concentration, read-out: Ki (inhibition constant)): 67.1 ± 1.28 µM
42.2 ± 1.4 µM | Oc1ccc2c(c1)CCc1ccc(cc1)Oc1cc(ccc1O)CCc1ccc-2c(O)c1 [Compound 3, Riccardin C] | 
131 ± 3 µM | COC1Cc2cccc(c2)Oc2c(ccc(O)c2O)CCc2ccc(cc2)Oc2cc1cc(O)c2O (stereo not drawn) [Compound 4, Marchantin K] | 
130 ± 2 µM | Oc1ccc(CCc2cccc(O)c2)cc1 [Compound 5, Lunularin] | 
> 200 µM | COc1cc(OC)c2c(c1)[C@@H](Cc1ccc(OC)c(OC)c1)OC2=O [Compound 6, 3R-(3,4-Dimethoxybenzyl)-5,7-dimethoxyphthalide] | 
> 200 µM | COc1cc(OC)c2c(c1)[C@H](Cc1cc(OC)c(OC)c(OC)c1)OC2=O [Compound 7, Marchatoside] | 
75.1 ± 1.8 µM | CC1(C)CC[C@]2(C)CC[C@]3(C)C(=CCC4[C@@]5(C)CCC(=O)C(C)(C)C5CC[C@]43C)C2C1 (stereo partly drawn) [Compound 10, 12-Oleanene-3-one] | 
101 ± 3 µM | C[C@@H]1CC[C@]2(C(=O)O)CC[C@]3(C)C(=CC(=O)C4[C@@]5(C)CCC(=O)C(C)(C)C5CC[C@]43C)C2[C@H]1C (stereo partly drawn) [Compound 11, 3,11-Dioxoursolic acid] | 
86 ± 6.9 µM | C[C@H]1[C@H](C)CC[C@]2(C(=O)O)CC[C@]3(C)C(=CC[C@@H]4[C@@]5(C)CC[C@H](O)C(C)(C)[C@@H]5CC[C@]43C)[C@H]12 [Compound 12, Ursolic acid] | 
> 200 µM | Vitexilactone [Compound 9] | 
